Several values for one entry are separate records, joined by “and”; a condition that tells them apart may be missing. Equal values may be shown once.
How the values were obtained:
[1] = xn = mol fraction of the nth substance listed

C=COCCCC
Conditions | viscosity [mPa·s]
308.15 K, 101 kPa | 0.374

CC=Cc1ccc(O)c(OC)c1
Conditions | viscosity [mPa·s]
298.15 K, 101 kPa | 26.7

CCCCCCCCCCCCCC[P+](CCCCCC)(CCCCCC)CCCCCC.N#C[N-]C#N
viscosity [mPa·s]
Conditions | 293.15 K | 298.15 K | 303.15 K | 308.15 K | 313.15 K | 318.15 K | 323.15 K
100 kPa | 603 | 442 | 331 | 253 | 196 | 155 | 124
101 kPa | – | 440 | 328 | – | 196 | – | 123

CCCCCCCCCCCCCC
Conditions | viscosity
293.15 K, 101.33 kPa | 2.282 mPa·s and 2.292 mPa·s and 2.292 mPa·s
298 K, 101.33 kPa | 2.074 mPa·s
298.15 K, 100 kPa | 2.15 mPa·s
298.15 K, 101.33 kPa | 2.088 mPa·s and 2.091 mPa·s and 2.025 mPa·s
298.15 K, 103 kPa | 2.048 mPa·s
303.15 K, 101 kPa | 1.895 mPa·s and 1.895 mPa·s
303.15 K, 101.33 kPa | 1.864 mPa·s
308.15 K, 101 kPa | 1.715 mPa·s and 1.715 mPa·s
308.15 K, 103 kPa | 1.685 mPa·s
313.15 K, 100 kPa | 1.612 mPa·s
313.15 K, 101.33 kPa | 1.548 mPa·s
318.15 K, 101.33 kPa | 1.356 mPa·s
318.15 K, 103 kPa | 1.413 mPa·s
323.15 K, 101.33 kPa | 1.314 mPa·s

CCOCCOCCO
101 kPa
Conditions | viscosity
293.15 K | 4.291 mPa·s and 3.626 mPa·s
298.15 K | 3.799 mPa·s and 3.686 mPa·s and 3.278 mPa·s
303.15 K | 3.186 mPa·s and 2.862 mPa·s
308.15 K | 2.839 mPa·s and 2.859 mPa·s and 2.507 mPa·s
313.15 K | 2.511 mPa·s
318.15 K | 2.358 mPa·s and 2.269 mPa·s

CCCCCO
Conditions | viscosity
293.15 K, 100 kPa | 4.057 mPa·s and 4.155 mPa·s and 3.964 mPa·s
293.15 K, 101 kPa | 3.939 mPa·s and 3.99 mPa·s and 4.06 mPa·s
293.15 K, 101.33 kPa | 3.675 mPa·s and 4.109 mPa·s and 4.109 mPa·s
298.15 K, 100 kPa | 3.512 mPa·s and 3.595 mPa·s
298.15 K, 101.3 kPa | 3.302 mPa·s
303.15 K, 101.3 kPa | 3 mPa·s and 2.832 mPa·s
308.15 K, 101.3 kPa | 2.449 mPa·s
313.15 K, 101.3 kPa | 2.3 mPa·s and 2.344 mPa·s
318 K, 101.3 kPa | 2.075 mPa·s
318.15 K, 100 kPa | 2.085 mPa·s
318.15 K, 101.3 kPa | 2.066 mPa·s
323 K, 101.3 kPa | 1.853 mPa·s
323.15 K, 101 kPa | 1.784 mPa·s

O=[N+]([O-])c1ccccc1
viscosity
Conditions | 293.15 K | 298.15 K | 303.15 K | 308.15 K | 313.15 K | 318.15 K | 323.15 K
100 kPa | 2.087 mPa·s | 1.909 mPa·s | 1.755 mPa·s | – | 1.501 mPa·s | 1.397 mPa·s | 1.303 mPa·s
101 kPa | 1.931 mPa·s | – | – | 1.457 mPa·s and 1.242 mPa·s and 1.601 mPa·s | 1.402 mPa·s | – | 1.192 mPa·s
101.3 kPa | – | 1.773 mPa·s | – | – | 1.373 mPa·s | – | –
101.33 kPa | 2.024 mPa·s and 2.079 mPa·s and 2.079 mPa·s | – | 1.665 mPa·s | – | – | – | –

CCOCCOCCO + CCCO
viscosity [mPa·s], [1], 101 kPa
Conditions | 298.15 K | 308.15 K | 318.15 K
x1 = 0.0114 | 1.94 | 1.509 | 1.233
x1 = 0.0195 | 1.939 | 1.508 | 1.233
x1 = 0.0356 | 1.947 | 1.516 | 1.248
x1 = 0.0469 | 1.955 | 1.517 | 1.249
x1 = 0.0557 | 1.95 | 1.526 | 1.259
x1 = 0.0883 | 1.972 | 1.546 | 1.277
x1 = 0.1002 | 1.992 | 1.558 | 1.281
x1 = 0.136 | 2.017 | 1.588 | 1.308
x1 = 0.1447 | 2.04 | 1.589 | 1.316
x1 = 0.168 | 2.051 | 1.617 | 1.341
x1 = 0.245 | 2.184 | 1.701 | 1.409
x1 = 0.2877 | 2.294 | 1.756 | 1.456
x1 = 0.3493 | 2.473 | 1.868 | 1.567
x1 = 0.411 | 2.616 | 1.984 | 1.657
x1 = 0.4745 | 2.761 | 2.1 | 1.752
x1 = 0.536 | 2.889 | 2.191 | 1.822
x1 = 0.6067 | 3.022 | 2.29 | 1.903
x1 = 0.6682 | 3.138 | 2.378 | 1.978
x1 = 0.7228 | 3.248 | 2.453 | 2.044
x1 = 0.7879 | 3.383 | 2.55 | 2.118
x1 = 0.8412 | 3.494 | 2.622 | 2.178
x1 = 0.894 | 3.6 | 2.695 | 2.238
x1 = 0.9378 | 3.694 | 2.76 | 2.281
x1 = 0.9751 | 3.755 | 2.813 | 2.324

O=[N+]([O-])c1ccccc1 + O=C1CCCCC1
Conditions | viscosity [mPa·s]
[1], 298.15 K, 101.3 kPa, x2 = 0.1946 | 1.785

From the CheMixHub viscosity set
